Where only a bound is given, the exact number is not on record here.

For the experiment, the target named is T1, Alkanal monooxygenase alpha chain (Vibrio harveyi, UniProt P07740).
T1 sequence (P07740 whole entry): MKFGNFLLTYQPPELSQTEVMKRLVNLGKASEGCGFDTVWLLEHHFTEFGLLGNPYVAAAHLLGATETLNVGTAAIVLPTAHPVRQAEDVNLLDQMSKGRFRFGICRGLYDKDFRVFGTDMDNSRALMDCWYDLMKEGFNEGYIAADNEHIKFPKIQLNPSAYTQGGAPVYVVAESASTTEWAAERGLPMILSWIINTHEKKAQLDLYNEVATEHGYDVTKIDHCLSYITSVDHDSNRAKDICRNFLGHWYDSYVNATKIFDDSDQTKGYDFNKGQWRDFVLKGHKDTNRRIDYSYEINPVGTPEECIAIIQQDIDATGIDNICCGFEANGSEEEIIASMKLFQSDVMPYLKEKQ
Description: AI-2 quorum sensing inhibitors, bioluminescence, confirmation, luminescence, dose retest, Vibrio harveyi (AID 2735).
In turn, `CCCc1ccc(S(=O)(=O)N(C)S(=O)(=O)c2ccc(F)cc2)cc1` [N-(4-fluorophenyl)sulfonyl-N-methyl-4-propylbenzenesulfonamide] returned an EC50 of 8.81 µM.
The value for `C=Cn1c(C(=O)O)ccc1-c1ccc(CC)cc1` was 25.8 µM; that for `Cn1cnc(S(=O)(=O)Nc2ccc(OC(F)(F)F)cc2)c1` [SMR000314513] was 24.5 µM; that for `CN(C)S(=O)(=O)c1ccc(NC(=S)NC(=O)Cc2ccccc2)cc1` [N-[[4-(dimethylsulfamoyl)phenyl]carbamothioyl]-2-phenyl-ethanamide] was over 160 µM.
With `Cc1cccc(NS(=O)(=O)c2ccc(Oc3ccccc3)cc2)n1` [SMR000071466] the figure was 12.5 µM; with `CCc1ccc(S(=O)(=O)Nc2ccc(Br)cn2)cc1` [MLS001211346], 18.1 µM.
The value for `COc1cc(NC(=O)CN2C(=O)NC(c3ccccc3)(c3ccccc3)C2=O)cc(OC)c1` [MLS001176525] was 10 µM.

Broadly, the EC50 is the midpoint of the concentration-response curve. Lower therefore signals higher potency in that assay.
